Measurements as given in patent publication US20240409531A1, “BENZOXAZINONE DERIVATIVES AS SELECTIVE CYTOTOXIC AGENTS” (Merck Sharp & Dohme LLC, priority 2021, published 2024).

System: PBMCs infected with VSV-G pseudotyped HIV virus (VSV-G/pNLGI-P2A-ΔEnv)
Assay: cells
Assay type: cell-based
Settings: Homo sapiens, PBMC, read-out: TACK EC50 (nM)

SMILES	EC50 [nM]
O=C1Nc2cc(Cn3cnccc3=O)c(Cl)cc2[C@@](C#CC2CC2)(C(F)(F)F)O1 [Example 15, (S)-6-chloro-4-(cyclopropylethynyl)-7-((6-oxopyrimidin-1(6H)-yl)methyl)-4-(trifluoromethyl)-1,4-dihydro-2H-benzo[d][1,3]oxazin-2-one]	63
Cc1cc(=O)n(Cc2ccc3c(c2)NC(=O)O[C@]3(C#CC2CC2)C(C)(F)F)cn1 [Example 10, (S)-4-(cyclopropylethynyl)-4-(1,1-difluoroethyl)-7-((4-methyl-6-oxopyrimidin-1(6H)-yl)methyl)-1,4-dihydro-2H-benzo[d][1,3]oxazin-2-one]	66
COc1cc(=O)n(Cc2cc3c(cc2F)[C@@](C#CC2CC2)(C(F)(F)F)OC(=O)N3)cn1 (single isomer, unassigned) [Example 4A]	25
CC(F)(F)[C@@]1(C#CC2CC2)OC(=O)Nc2cc(Cn3ccnc(N)c3=O)ccc21 [Example 8, (S)-7-((3-amino-2-oxopyrazin-1(2H)-yl)methyl)-4-(cyclopropylethynyl)-4-(1,1-difluoroethyl)-1,4-dihydro-2H-benzo[d][1,3]oxazin-2-one]	30
COc1cc(=O)n(Cc2cc3c(cc2Cl)[C@@](C#CC2CC2)(C(C)(F)F)OC(=O)N3)cn1 [Example 13, (S)-6-chloro-4-(cyclopropylethynyl)-4-(1,1-difluoroethyl)-7-((4-methoxy-6-oxopyrimidin-1(6H)-yl)methyl)-1,4-dihydro-2H-benzo[d][1,3]oxazin-2-one]	11
NS(=O)(=O)c1ccc(Cc2ccc3c(c2)NC(=O)O[C@]3(C#CC2CC2)C(F)(F)F)cc1 (single isomer, unassigned) [Example 30A]	755
O=C1Nc2cc(Cn3cccn3)c(F)cc2[C@@](C#CC2CC2)(C(F)(F)F)O1 (single isomer, unassigned) [Example 29A]	428
CC(F)(F)[C@@]1(C#CC2CC2)OC(=O)Nc2cc(Cn3ccnc(N)c3=O)c(F)cc21 [Example 21, (S)-7-((3-amino-2-oxopyrazin-1(2H)-yl)methyl)-4-(cyclopropylethynyl)-4-(1,1-difluoroethyl)-6-fluoro-1,4-dihydro-2H-benzo[d][1,3]oxazin-2-one]	12
CC(F)(F)[C@@]1(C#CC2CC2)OC(=O)Nc2cc(Cc3ccnc(N)n3)c(F)cc21 [Example 39, (S)-7-((2-aminopyrimidin-4-yl)methyl)-4-(cyclopropylethynyl)-4-(1,1-difluoroethyl)-6-fluoro-1,4-dihydro-2H-benzo[d][1,3]oxazin-2-one]	16
COCc1cc(=O)n(Cc2cc3c(cc2F)[C@@](C#CC2CC2)(C(C)(F)F)OC(=O)N3)cn1 [Example 23, (S)-4-(cyclopropylethynyl)-4-(1,1-difluoroethyl)-6-fluoro-7-((4-(methoxymethyl)-6-oxopyrimidin-1(6H)-yl)methyl)-1,4-dihydro-2H-benzo[d][1,3]oxazin-2-one]	16
Nc1nccc(Cc2cc3c(cc2F)[C@@](C#CC2CC2)(C(F)(F)F)OC(=O)N3)n1 (single isomer, unassigned) [Example 31A]	91
O=C1Nc2cc(Cn3cnccc3=O)c(F)cc2[C@@](C#CC2CC2)(C(F)(F)F)O1 (single isomer, unassigned) [Example 2A]	88
COCc1cc(=O)n(Cc2cc3c(cc2F)[C@@](C#CC2CC2)(C(F)(F)F)OC(=O)N3)cn1 (single isomer, unassigned) [Example 5A]	35
COCc1cc(=O)n(Cc2cc3c(cc2Cl)[C@@](C#CC2CC2)(C(F)(F)F)OC(=O)N3)cn1 [Example 19, (S)-6-chloro-4-(cyclopropylethynyl)-7-((4-(methoxymethyl)-6-oxopyrimidin-1(6H)-yl)methyl)-4-(trifluoromethyl)-1,4-dihydro-2H-benzo[d][1,3]oxazin-2-one]	128
